Experimental findings from patent US10822334B2, “ErbB receptor inhibitors” (Dizal (Jiangsu) Pharmaceutical Co., Ltd., priority 2018, dated 2020) are described below.

By GI50 is commonly meant the concentration at which growth is held to half of that of the control. The term IC50 denotes the point on the concentration scale where inhibition reaches its midpoint.

Data set [1] relates to BT474 cells. The experiment in a line: BT474 anti-proliferation assay (MTS). It counts as cell-based. The following applies: Homo sapiens. As for the experimental part: A compound's activity of selective inhibition for HER2 wild type amplification can be evaluated with BT474 cell line (ATCC® HTB-20™). The cell line expressed phosphorylated HER2 protein and its proliferation depended on the amplified gene, which could be used for in vitro PD and anti-proliferation assays.
The anti-proliferation activity of compounds were determined as following procedure: The BT474 cells were sorted in 384 well plates with the DMEM medium containing 10% FBS and […] overnight and then dosed with tested compounds at a series of concentrations (30 μM, 10 μM, 3 μM, 0.3 μM, 0.1 μM, 0.03 μM, 0.01 μM, 0.001 μM) on next day. Meanwhile, another cells plate was prepared for measuring GO value on next day. The dosed plates were incubate for 72h at 37° C. with 5% CO2 and the number of viable cells in each well of GO or dosed plates were measured by MTS (CellTiter 96® AQueous One Solution Cell Proliferation Assay, Promega) endpoint. This assay is a colorimetric method for determining the number viable cells in the proliferation assay. Detection reagents (5 μl) was dispensed into per well, and the plates were incubated for 2 hrs at room temperature. Then, absorbance at 490 nm and 650 nm (reference wavelength) in each well was measured using the safile II. (Tecan). The percentage of proliferation was got from the formula: % Proliferation=100×(G3 value of sample well-Go value)/(G3 value of DMSO control-Go value). The GI50 values were further calculated as the compounds concentration required for 50% Proliferation in best-fit curves using Genedata Screener® software.

In data set [2] the target is WT HER2 (Homo sapiens (Human), UniProt P04626). The experiment in a line: HER2 (Y1248) phosphorylation in BT474 cells (MSD). It counts as cell-based. The following applies: p-HER2 (Y1248)/total HER2, 4 h, read-out: HER2 WT Amplification BT474 IC50. As for the experimental part: The plates were incubated for 4 h at 37° C. with 5% CO2 and then the HER2 (Y1248) phosphorylation level of cells in each well were measured with MSD Kit (Phospho-ErbB2 ([…]) Assay Whole Cell Lysate Kit: Cat # […]-3). The assay is a electrochemiluminescent method (MESO SCALE DISCOVERY) for determining both phosphorylated and total HER2 of cells with an MSD SECTOR® Imager and then the ratio of p-HER2/total HER2 can be generated by the machine.

Data set [3] in a line: Blood brain barrier penetration assay in rats (short oral absorption model). It counts as in vivo. To be noted: for Kp uu: male, Han Wistar, rat, po. Here is the method:
In vitro blood, plasma and brain binding assay was carried out with equilibrium dialysis device. Diluted blood (1:1with DPBS pH7.4), EDTA-anticoagulated plasma, and brain homogenate (1:3 with DPBS pH7.4) were spiked with 5 μM test compound (in triplicate) and dialyzed against equal volume of 150 μL 100 mM PBS buffer (pH7.4) at 37° C. for appropriate equilibration time in a slowly rotated plate. At the end of incubation, a 50 μL aliquot from the receiver side and a 5 μL from the donor chamber were taken. The 5 μL sample was further diluted with 45 μL of blank blood, plasma or brain homogenate. Paired samples were matrix-matched with either buffer or blank matrix, and mixed for 2 min, and then precipitated with 150 μL cold acetonitrile with 100 ng/mL tolbutamide as internal standard. After centrifuging at 4000 rpm for 20 min, supernatant was diluted with 0.1% formic acid aqueous solution and analyzed for LC/MS/MS (API 4000, Applied Biosystems, Foster City). Unbound fraction (fu) of test compound were calculated by the ratio of the buffer side response to the brain homogenate/plasma/blood side response, and unbound fraction (fu,bl, fu,pl and fu,br) of test compound in non-diluted blood and tissue were calculated from measured fu in homogenate and diluted blood with the following equation: fu,bl (fu,br)=(1/D)/[(1/fu−1)+1/D)]. D is dilution factor. (D equates 1 for plasma, 2 for blood, and 4 for brain)
A Short oral absorption (SOA) model is an in-vivo screening model to identify brain penetration of a compound. Six male Han Wistar rats purchased from Beijing Vital River were orally dosed with the compound. At predefined time point post-dose, cerebral spinal fluid (CSF) was collected from cisterna magna, and blood samples (>60 μL/time point/each site) were collected via cardiac puncture, into separate EDTA anti-coagulated tubes, and then immediately diluted with 3-fold volume of water for blood samples, or centrifuged at 4000 g for 10 min to obtain plasma. Brain tissue was harvested and homogenized in 3× volume of 100 mM phosphate buffered saline (pH7.4). All samples were stored at ˜−70° C. prior to LC/MS/MS analysis.
Standards were prepared by spiking blank plasma, blood, brain homogenate and artificial CSF. Homogenized brain tissue along with blood/plasma samples were precipitated by adding 3-fold volume of cold acetonitrile containing internal standard, and 10 μL of CSF samples were precipitated with 100 μL of cold acetonitrile containing internal standard. After 2 min vortex and 5 min centrifugation at 14,000 rpm, supernatant was analyzed by LC/MS/MS (API 4000, Applied Biosystems, Foster City). Two sets of standard curves were run at the beginning and end of each batch from blood sample analysis. For brain and CSF samples, one standard curve was analyzed along with test samples.
Total brain levels, expressed as brain/blood ratio (Kp,brain) were measured by AUC(brain)/AUC(blood or plasma) in rodents after oral administration. Similarly, CSF levels represented by a ratio of CSF/blood exposure (Kp,CSF) were determined by AUC(CSF)/AUC(blood or plasma). Free fraction of test compound in biological matrix was determined by in vitro blood and brain binding assay.
Kp,uubrain and Kp,uu CSF was calculated by the following equation: Kp,uu brain=AUC(brain)/AUC(blood or plasma)×(fubrain/fublood/plasma) and Kp,uu CSF=AUC(CSF)/AUC(blood or plasma)×(1/fublood/plasma).

The target of data set [4] is WT EGFR (Homo sapiens (Human), UniProt P00533). Put plainly: EGFR (Y1068) phosphorylation in NCI-H838 cells (MSD). It counts as cell-based. To be noted: p-EGFR (Y1068)/total EGFR, 4 h, hEGF stimulation.
Setting [5] is: BT-474, BT474 cells, 72 h, MTS, read-out: HER2 WT Amplification BT474 GI50.
Where [6] appears, read: CSF, male Han Wistar rats, oral, AUC(CSF)/AUC(blood or plasma) x 1/fu, read-out: Kp,uu CSF.
[7] abbreviates: brain, male Han Wistar rats, oral, AUC(brain)/AUC(blood or plasma) x fu ratio, read-out: Kp,uu brain.

The structures appear in SMILES notation. Read-outs that look alike come from different tables or passages of the source.

Chain of WT EGFR (P00533 25-1210): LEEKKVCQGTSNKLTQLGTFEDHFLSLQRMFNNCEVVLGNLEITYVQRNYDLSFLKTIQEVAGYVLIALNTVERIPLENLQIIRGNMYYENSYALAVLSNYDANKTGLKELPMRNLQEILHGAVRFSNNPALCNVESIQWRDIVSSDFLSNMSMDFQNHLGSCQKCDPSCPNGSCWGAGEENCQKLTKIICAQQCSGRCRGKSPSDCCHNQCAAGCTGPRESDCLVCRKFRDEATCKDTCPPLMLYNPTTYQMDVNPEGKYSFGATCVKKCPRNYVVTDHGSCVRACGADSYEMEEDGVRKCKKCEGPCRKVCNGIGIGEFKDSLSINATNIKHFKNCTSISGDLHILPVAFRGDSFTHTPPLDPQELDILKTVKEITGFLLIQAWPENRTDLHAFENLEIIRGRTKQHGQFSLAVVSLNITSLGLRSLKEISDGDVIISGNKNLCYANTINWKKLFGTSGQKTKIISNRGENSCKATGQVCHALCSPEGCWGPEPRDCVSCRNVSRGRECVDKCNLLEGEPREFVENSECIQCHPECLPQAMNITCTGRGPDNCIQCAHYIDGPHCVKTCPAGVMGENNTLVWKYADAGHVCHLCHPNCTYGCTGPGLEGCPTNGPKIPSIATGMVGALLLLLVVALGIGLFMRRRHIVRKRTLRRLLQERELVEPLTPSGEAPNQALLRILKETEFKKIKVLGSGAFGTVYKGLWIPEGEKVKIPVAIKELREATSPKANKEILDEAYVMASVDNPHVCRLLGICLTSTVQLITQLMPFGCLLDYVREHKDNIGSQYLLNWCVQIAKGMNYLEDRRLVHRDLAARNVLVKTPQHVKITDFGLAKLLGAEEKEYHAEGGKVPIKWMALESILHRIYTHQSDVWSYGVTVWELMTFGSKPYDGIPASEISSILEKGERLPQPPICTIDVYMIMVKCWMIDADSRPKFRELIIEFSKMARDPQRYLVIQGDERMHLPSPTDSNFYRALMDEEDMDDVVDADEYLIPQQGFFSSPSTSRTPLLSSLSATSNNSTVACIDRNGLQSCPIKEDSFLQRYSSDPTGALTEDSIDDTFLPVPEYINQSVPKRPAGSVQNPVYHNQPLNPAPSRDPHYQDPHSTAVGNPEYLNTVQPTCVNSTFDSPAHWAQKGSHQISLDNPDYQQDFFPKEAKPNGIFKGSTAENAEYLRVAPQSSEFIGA
Chain of WT HER2 (P04626 23-1255): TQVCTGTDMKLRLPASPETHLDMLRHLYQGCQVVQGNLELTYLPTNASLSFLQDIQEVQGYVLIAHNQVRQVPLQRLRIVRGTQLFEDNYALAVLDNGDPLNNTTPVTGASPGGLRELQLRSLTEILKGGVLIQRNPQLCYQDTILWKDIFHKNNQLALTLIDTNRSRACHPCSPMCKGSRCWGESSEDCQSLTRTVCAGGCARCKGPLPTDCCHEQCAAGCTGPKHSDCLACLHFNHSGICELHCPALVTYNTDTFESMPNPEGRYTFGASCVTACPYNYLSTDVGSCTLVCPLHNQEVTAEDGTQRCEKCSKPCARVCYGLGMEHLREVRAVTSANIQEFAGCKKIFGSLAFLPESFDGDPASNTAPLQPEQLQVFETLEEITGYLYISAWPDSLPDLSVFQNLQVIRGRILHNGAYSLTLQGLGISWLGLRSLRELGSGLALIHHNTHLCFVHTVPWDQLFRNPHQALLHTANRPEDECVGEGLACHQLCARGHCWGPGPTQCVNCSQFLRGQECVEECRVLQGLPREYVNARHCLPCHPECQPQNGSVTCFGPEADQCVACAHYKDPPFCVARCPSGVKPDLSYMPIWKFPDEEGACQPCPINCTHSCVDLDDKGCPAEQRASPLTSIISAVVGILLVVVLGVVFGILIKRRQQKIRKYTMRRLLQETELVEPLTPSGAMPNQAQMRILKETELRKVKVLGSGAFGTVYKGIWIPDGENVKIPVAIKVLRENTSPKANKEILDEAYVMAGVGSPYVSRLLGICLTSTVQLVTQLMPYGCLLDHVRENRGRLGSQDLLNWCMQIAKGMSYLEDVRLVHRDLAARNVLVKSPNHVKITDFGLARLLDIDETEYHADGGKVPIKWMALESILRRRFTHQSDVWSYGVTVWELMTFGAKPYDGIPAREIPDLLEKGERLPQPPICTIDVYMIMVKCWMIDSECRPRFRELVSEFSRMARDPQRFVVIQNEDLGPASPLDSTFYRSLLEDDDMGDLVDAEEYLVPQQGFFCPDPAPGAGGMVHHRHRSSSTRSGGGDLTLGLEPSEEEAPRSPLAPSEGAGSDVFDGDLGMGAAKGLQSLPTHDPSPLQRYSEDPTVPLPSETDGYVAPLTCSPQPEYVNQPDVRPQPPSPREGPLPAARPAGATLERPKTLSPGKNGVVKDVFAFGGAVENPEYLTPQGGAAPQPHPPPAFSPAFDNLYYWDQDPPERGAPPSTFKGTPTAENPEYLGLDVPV

Turning to `[2H]C([2H])([2H])N1CC[C@H](Oc2cccc3ncnc(Nc4ccc(Oc5ccn6ncnc6c5)c(C)c4)c23)C[C@@H]1C(F)(F)F` (racemic) [Compound 25, (±)-N-(4-([1,2,4]triazolo[1,5-a]pyridin-7-yloxy)-3-methylphenyl)-5-(((2R,4S)-1-(methyl-d3)-2-(trifluoromethyl)piperidin-4-yl)oxy)quinazolin-4-amine], the GI50 in data set [1] (setting [5]) came to 47.2 nM. Besides, the IC50 was 16.8 nM in data set [2] and above 10000 nM in data set [4]. For the same molecule, the Kp uu in data set [3] (setting [6]) was 1.92; in data set [3] (setting [7]) it was 0.11.
Taken in the same sequence, the figures for `[2H]C1(Oc2cc(OC)cc3ncnc(Nc4ccc(Oc5ccn6ncnc6c5)c(C)c4)c23)CCN(C)CC1(F)F` (racemic) [Compound 27, (±)-N-(4-([1,2,4]triazolo[1,5-a]pyridin-7-yloxy)-3-methylphenyl)-5-((3,3-difluoro-1-methylpiperidin-4-yl-4-d)oxy)-7-methoxyquinazolin-4-amine] were 22.1 nM, 10.3 nM, 5130 nM, 0.52 and 0.1.
Taken in the same sequence, the figures for `Cc1cc(Nc2ncnc3cccc(OC4CCN(C)CC4(F)F)c23)ccc1Oc1ccn2ncnc2c1` (single isomer, unassigned) [Compound 1, N-(4-([1,2,4]triazolo[1,5-a]pyridin-7-yloxy)-3-methylphenyl)-5-((3,3-difluoro-1-methylpiperidin-4-yl)oxy)quinazolin-4-amine] were 24.2 ± 24 nM, 6.86 nM, above 3000 nM, 1.44 and 0.23.
Taken in the same sequence, the figures for `COc1cc(O[C@H]2CCN(C)CC2(F)F)c2c(Nc3ccc(Oc4ccn5ncnc5c4)c(C)c3)ncnc2c1` (single isomer, unassigned) [Compound 6] were 18.7 ± 9.16 nM, 19.6 ± 8.76 nM, 3290 ± 1350 nM, 0.56 and 0.18.
For `COc1cc(OC2CCN(C)CC2(F)F)c2c(Nc3cc(C)c(Oc4ccn5ncnc5c4)cc3F)ncnc2c1` (single isomer, unassigned) [Compound 14], the concentration for 50% growth inhibition (GI50) in data set [1] (setting [5]) stood at 26.8 ± 11.5 nM. In addition, the half-inhibitory concentration (IC50) turned out to be 19.7 nM in data set [2] and 1390 nM in data set [4]. Moreover, the Kp uu came out at 0.24 in data set [3] (setting [6]) and 0.04 in data set [3] (setting [7]).
The like results for `Cc1cc(Nc2ncnc3cc(F)cc(OC4CCN(C)CC4(F)F)c23)ccc1Oc1ccn2ncnc2c1` (single isomer, unassigned) [Compound 17] were, in that order, 126 ± 9.01 nM, 44 nM, above 3000 nM, 1.02 and 0.07.
Take `Cc1cc(Nc2ncnc3cccc(OC4CC(C)N(C)CC4(F)F)c23)ccc1Oc1ccn2ncnc2c1` (single isomer, unassigned) [Compound 19]: the GI50 in data set [1] (setting [5]) came to 11.5 nM. Further, the IC50 in data set [2] was 9.56 ± 3.13 nM; in data set [4] it was above 10000 nM. In addition, the Kp uu came out at 0.4 in data set [3] (setting [6]) and 0.1 in data set [3] (setting [7]).
The like results for `[2H]C([2H])([2H])N1CCC(Oc2cccc3ncnc(Nc4ccc(Oc5ccn6ncnc6c5)c(C)c4)c23)C(F)(F)C1` (single isomer, unassigned) [Compound 24, N-(4-([1,2,4]triazolo[1,5-a]pyridin-7-yloxy)-3-methylphenyl)-5-((3,3-difluoro-1-(methyl-d3)piperidin-4-yl)oxy)quinazolin-4-amine] were, in that order, 50.8 nM, 9.38 nM, above 10000 nM, 1.44 and 0.23.
With `[2H]C([2H])([2H])N1CCC([2H])(Oc2cc(OC)cc3ncnc(Nc4ccc(Oc5ccn6ncnc6c5)c(C)c4)c23)C(F)(F)C1` (single isomer, unassigned) [Compound 28], in data set [1] (setting [5]), the GI50 stood at 35.8 nM. In addition, the IC50 came out at 22.4 nM in data set [2] and 5220 nM in data set [4]. Besides, the figures for the Kp uu in data set [3] (setting [6]) and in data set [3] (setting [7]) were 0.52 and 0.11, respectively.
The like results for `COc1cc(O[C@H]2CCNCC2(F)F)c2c(Nc3ccc(Oc4ccn5ncnc5c4)c(C)c3)ncnc2c1` [Compound 16, (S)-N-(4-([1,2,4]triazolo[1,5-a]pyridin-7-yloxy)-3-methylphenyl)-5-((3,3-difluoropiperidin-4-yl)oxy)-7-methoxyquinazolin-4-amine] were, in that order, 14.3 ± 13.6 nM, 10.6 ± 2.4 nM, 3060 ± 80.2 nM, 0.11 and 0.03.
For the molecule `Cc1cc(Nc2ncnc3cccc(O[C@@H]4C[C@H]5CC[C@@H](C4)N5C)c23)ccc1Oc1ccn2ncnc2c1` [Compound 20, N-(4-([1,2,4]triazolo[1,5-a]pyridin-7-yloxy)-3-methylphenyl)-5-(((1R,3s,5S)-8-methyl-8-azabicyclo[3.2.1]octan-3-yl)oxy)quinazolin-4-amine], the GI50 in data set [1] (setting [5]) came out at 41 ± 1.55 nM. The IC50 in data set [2] was 12.6 nM; in data set [4] it was above 10000 nM. Also, the Kp uu is 0.07 in data set [3] (in vivo, Kp,uu CSF) and 0.08 in data set [3] (in vivo, Kp,uu brain).
On to `CCOc1cc2ncc(C#N)c(Nc3ccc(OCc4ccccn4)c(Cl)c3)c2cc1NC(=O)/C=C/CN(C)C` [Neratinib, reference compound], for which the GI50 in data set [1] (BT-474, 72 h, read-out: HER2 WT Amplification BT474 GI50 (nM)) was determined as 0.71 ± 0.08 nM. Besides, the “Kp,uu CSF” value in data set [3] (male Han Wistar rats, oral, AUC(CSF)/AUC(blood or plasma) x 1/fu) is listed as “AUC(CSF) below”. Also, the “Kp,uu brain” value in data set [3] (male Han Wistar rats, oral, AUC(brain)/AUC(blood or plasma) x fu ratio) is “AUC(brain) below”.
